Patent US11116732B2, “Carotenoid-containing cognitive function improving composition for use in exercise therapy for improving cognitive function” (ASTAREAL CO., LTD., priority 2016, dated 2021)

Experiments:
[1] = in vivo; cited from earlier work
[2] = system: adult hippocampal neurogenesis (hippocampal dentate gyrus); test: Adult hippocampal neurogenesis (AHN): immunohistochemical count of Ki67+, BrdU+ and BrdU+/NeuN+ cells after 4 weeks of ASX uptake with or without low intensity exercise; format: in vivo, mouse; details: for number of newly matured cells (BrdU+/NeuN+), rate of change relative to the CON group / number of proliferating cells (Ki67+), rate of change relative to the CON group / number of viable cells (BrdU+), rate of change relative to the CON group: 4 weeks
Excerpt: (§1) For the purpose of clarifying whether or not hippocampal function improving effect is enhanced by low intensity exercise, influence of combined use of low intensity exercise (7 m/min) of VT or less and ASX uptake (0.5% by weight) on AHN and spatial cognitive function was investigated.
(§2) All the mice used in this experiment were divided so that the weight was equalized at the preliminary breeding end point. These were divided into four groups of placebo+rest (CON), placebo+low intensity exercise (ME), 0.5% ASX uptake+rest (ASX), and the low intensity exercise+0.5% ASX uptake (ME+ASX) (FIG. 5). Mice were bred each one per a cage.
0.5% ASX uptake or placebo uptake was carried out.
The mice in the low intensity exercise group imposed a treadmill running exercise of 7 m/min for 30 minutes a day. Also, the mice in the rest group were placed on the treadmill for equal time with the running exercise training and were not allowed to exercise anything (control experiment). For the running exercise training, a treadmill for small animals (KN-73, Natsume, Japan) was used. In either of the groups, training or control experiment was imposed once a day in the dark period, which became active for mice.
BrdU (bromodeoxyuridine) is taken up as an analog molecule of thymidine into the cell nucleus at the S phase of the cell cycle and is used to evaluate cell division, proliferation, and subsequent survival. Thus, BrdU (100 mg/kg BW) was intraperitoneally administered to all mice during three days before starting running exercise and 0.5% ASX uptake (FIG. 5). Administration was carried out only once a day (AM8:00).
Immunohistochemical staining method is a method of labeling and visualizing a target DNA or protein on a tissue utilizing an antigen antibody reaction. In visualization, it is carried out by labelling an enzyme or a fluorescent substance, etc., which is a substance to be a marker, to an antibody which bounds to an antigen, and reacting with the marker to colorize the antibody adhered portion. In this experiment, fluorescent antibody method was used for evaluation of proliferating cells, viable cells and newly matured neurons.
In this experiment, BrdU was identified for the evaluation of neoplastic cells. For identification, rat anti-BrdU antibody (Rat anti-BrdU, AbD Serotec) was used as a primary antibody and CyTM3 donkey anti-rat IgG antibody (Cy3 Donkey Anti-Rat IgG, JACKSON) was used as a secondary antibody to fluorescently label with red color and visualized. In addition, for identification of mature neurons, mouse anti-NeuN antibody (Mouse Anti-Neuronal Nuclei monoclonal antibody, Chemicon) was used as a primary antibody, and for visualization, a fluorescently labeled secondary antibody AMCA donkey anti-mouse IgG antibody (AMCA Donkey Anti-Mouse IgG, JACKSON) was used and stained to blue color.
According to this procedure, newly matured cells were evaluated by BrdU+/NeuN+ reaction (red+bluish white). The procedures of the fluorescent antibody method were shown below.
In this experiment, for evaluation of cell proliferation, it was identified by Ki67. For identification, rabbit anti-Ki67 antibody (Rabbit anti-Ki67, Abcam) was used as a primary antibody, and Alexa 555 anti-rabbit IgG antibody (Goat Alexa 555 anti-rabbit IgG, Biotium) was used as a secondary antibody to fluorescently label with red color and visualized. In addition, for identification of the matured neurons, mouse anti-NeuN antibody (Mouse Anti-Neuronal Nuclei monoclonal antibody, Chemicon) was used as a primary antibody, and for visualization, a fluorescently labeled secondary antibody AMCA donkey anti-mouse IgG antibody (AMCA Donkey Anti-Mouse IgG, JACKSON) was used and stained to blue color. According to this procedure, newly matured cells were evaluated by Ki67+/NeuN+reaction (red+bluish white). The procedures of the fluorescent antibody method were shown below.
All data were expressed as an average value±standard error of each sample. […]

[3] = system: spatial learning memory ability; test: Morris water maze (MWM): place learning escape training and probe test; format: in vivo, mouse; details: for escape time during place learning escape training: P<0.05
Excerpt: as §1, §2
2-11. Evaluation of Spatial Learning Memory Ability: Morris Water Maze (MWM)
Evaluation of spatial learning memory ability was carried out.
Here, in order to clarify whether or not improvement of the hippocampal function due to the low intensity exercise is enhanced by ASX uptake, influence of combined use of the low intensity exercise of VT or less and 0.5% ASX uptake on AHN and spatial learning memory ability was investigated. For the evaluation of AHN, the numbers of proliferating cells (Ki67+), viable cells (BrdU+), and newly matured cells (BrdU+/NeuN+) were counted using immunohistochemical staining method and the result thereof was shown by the rate of change relative to the CON group. Also, the spatial learning memory ability was evaluated using the MWM with regard to acquiring ability (learning) of memory by the place learning escape training for 4 days, and retention and recollection ability of memory by the probe test on the fifth day.

[4] = system: hippocampal mRNA expression; test: Hippocampal mRNA expression by RT-PCR; format: in vivo, mouse
Excerpt: (§3) All the mice used in this experiment were divided so that the weight was equalized at the preliminary breeding end point. These were divided into three groups of placebo+rest (CON), placebo+low intensity exercise (ME), and low intensity exercise+0.5% ASX uptake (ME+ASX) (each n=8). Mice were bred each one per a cage.
The brain was removed two days after 4 weeks training and ASX uptake. The hippocampus was fractionated from the collected brain (Hirano M, Rakwal R, Shibato J, Sawa H, Nagashima K, Ogawa Y, Yoshida Y, Iwahashi H, Niki E, Masuo Y. Proteomics- and transcriptomics-based screening of differentially expressed proteins and genes in brain of Wig rat: a model for attention deficit hyperactivity disorder (ADHD) research. J Proteome Res 7: 2471-2489, 2008). The hippocampus was immediately frozen with liquid nitrogen and stored in a freezer at −80° C.
In order to confirm the reproducibility and validity of the molecular mechanism estimated by the microarray and IPA analysis, 12 genes were picked up and the changes in their gene expression were reexamined by RT-PCR.
All data were expressed as an average value±standard error. For statistical processing of RT-PCR, after one-way analysis of variance (One-way ANOVA), the Bonferroni's tests method was used as post-hoc. All the significance levels were set to less than 5%.

neural progenitor cells = details: in vitro; cited from earlier work
[5] = system: nerve injury due to epilepsy; details: rat, in vivo; cited from earlier work
[6] = system: hippocampal gene expression; test: Hippocampal gene expression by DNA microarray and IPA network analysis; format: in vivo, mouse
Excerpt: as §3
The brain was removed two days after 4 weeks training and ASX uptake. The hippocampus was fractionated from the collected brain (Hirano M, Rakwal R, Shibato J, Sawa H, Nagashima K, Ogawa Y, Yoshida Y, Iwahashi H, Niki E, Masuo Y. Proteomics- and transcriptomics-based screening of differentially expressed proteins and genes in brain of Wig rat: a model for attention deficit hyperactivity disorder (ADHD) research. J Proteome Res 7: 2471-2489, 2008). The hippocampus was immediately frozen with liquid nitrogen and stored in a freezer at −80° C. […]
3) Hybridization: Samples of fluorescently labeled control group (CON group) and experiment group (ME group, ME+ASX group) are assayed on the same Microarray chip and hybridized with a 60 base pair probe on the slide glass. […] In the program at this time, the color intensity of Cy3 and Cy5 of all the probes was measured. 6) Standardization of data: For standardization of data, LOWESS (locally weighted linear regression) was used, and logarithmic and logarithmic error rates standardized from Cy3 and Cy5 signals were calculated. […]

[7] = ASX group compared with the CON group, P<0.05
[8] = ASX group: 0.5% ASX uptake + rest
[9] = ME+ASX group: low intensity exercise (7 m/min) + 0.5% ASX uptake

Question: Which “passage through the blood brain barrier” value [1] does the source give for `CC1=C(/C=C/C(C)=C/C=C/C(C)=C/C=C/C=C(C)/C=C/C=C(C)/C=C/C2=C(C)C(=O)[C@@H](O)CC2(C)C)C(C)(C)C[C@H](O)C1=O` [ASX, astaxanthin] here?
Answer: Its value is “moves through the blood brain barrier into the brain”.

Question: What about the “number of BrdU positive cells” value [2, 7] of the same molecule?
Answer: The value was “significant increase”.

Question: And the “number of BrdU/NeuN positive cells” value [2, 7]?
Answer: Its value is “significant increase”.

Question: And the “number of Ki67 positive cells” value [2, 7]?
Answer: Its value is “significant increase”.

Question: What about the “number of newly matured cells (BrdU+/NeuN+), rate of change relative to the CON group” value [2, 8] of the same molecule?
Answer: The value was “+46.3%”.

Question: What about the “number of proliferating cells (Ki67+), rate of change relative to the CON group” value [2, 8] of the same molecule?
Answer: Its value is “+16.9%”.

Question: What about the “number of viable cells (BrdU+), rate of change relative to the CON group” value [2, 8] of the same molecule?
Answer: Its value is “+44.9%”.

Question: And the “effect of the combination of low intensity exercise and ASX uptake on AHN and hippocampal function, against the sum of the ME group and the ASX group” value ([2]; ME+ASX group)?
Answer: The value was “synergistically increases”.

Question: What about the “number of Ki67 positive cells” value ([2]; ME+ASX group compared with the ME group and the ASX group, P<0.001) of the same molecule?
Answer: The value was “significant increase”.

Question: What about the “number of BrdU positive cells” value ([2]; ME+ASX group compared with the ME group and the ASX group, P<0.05) of the same molecule?
Answer: The value was “significant increase”.

Question: And the “number of newly matured cells (BrdU+/NeuN+), rate of change relative to the CON group” value [2, 9]?
Answer: The value was “+102.9%”.

Question: And the “number of proliferating cells (Ki67+), rate of change relative to the CON group” value [2, 9]?
Answer: The value was “+52.3%”.

Question: What about the “number of viable cells (BrdU+), rate of change relative to the CON group” value [2, 9] of the same molecule?
Answer: The value was “+95.7%”.

Question: And the “spatial memory capacity, increase rate for the CON group” value ([3]; ASX group)?
Answer: Its value is 25.9%.

Question: And the “result of the MWM” value ([3]; ASX group, 0.5% ASX uptake)?
Answer: Its value is “significantly improved”.

Question: And the “escape time during place learning escape training” value ([3]; ASX group, fourth day)?
Answer: The value was “significant shortening”.

Question: And the “probe test: ratio of the cumulative time of swimming within the quadrant where the platform existed to the total swimming time” value [3, 8]?
Answer: Its value is 30.5%.

Question: And the “spatial memory capacity, increase rate for the CON group” value ([3]; ME+ASX group)?
Answer: Its value is 60.6%.

Question: What about the “escape time during place learning escape training” value ([3]; ME+ASX group compared with the CON, third day) of the same molecule?
Answer: The value was “significant shortening”.

Question: What about the “probe test: ratio of the cumulative time of swimming within the quadrant where the platform existed to the total swimming time” value ([3]; ME+ASX group: low intensity exercise + 0.5% ASX uptake) of the same molecule?
Answer: The value was 39.9%.

Question: What about the swimming speed ([3]; among the groups (CON, ME, ASX, ME+ASX)) of the same molecule?
Answer: Its swimming speed is “no significant difference”.

Question: What about the “mRNA expression of Cxcr4, Stat3, Mapk1 and Jak2” value ([4]; ME+ASX group (also in the ME group)) of the same molecule?
Answer: Its value is “significantly increased”.

Question: What about the “mRNA expression of Psen1, Notch2, Igflr, Igfl, Pi3k and Creb” value ([4]; only in the ME+ASX group) of the same molecule?
Answer: Its value is “increased significantly”.

Question: What about the “proliferation of neural progenitor cells” value (neural progenitor cells) of the same molecule?
Answer: Its value is “enhances the proliferation of neural progenitor cells”.

Question: And the “protection against nerve injury due to epilepsy” value [5]?
Answer: The value was “protect against nerve injury due to epilepsy”.

Question: And the “Igflr (insulin-like growth factor 1 receptor) gene expression (IPA network analysis)” value ([6]; ME+ASX group only)?
Answer: The value was “estimated to enhance”.

Question: And the “Lep and Cxcr4 gene expression (IPA network analysis)” value ([6]; ME+ASX group, similar to the ME group)?
Answer: Its value is “enhancement”.
